Test results reported in paper PMC5037758, “Affinity of ^nat/68Ga-Labelled Curcumin and Curcuminoid Complexes for β-Amyloid Plaques: Towards the Development of New Metal-Curcumin Based Radiotracers” (International Journal of Molecular Sciences, 2016).

Assays:
[1] = target: T1, amyloid β-protein (1–40) (Homo sapiens, UniProt P05067); experiment: direct radioligand binding to fibrils with displacement by curcumin; fluorescence microscopy
T1 construct: gene APP; Aβ(1–40) synthetic amyloid fibrils

[2] = target: T1, amyloid β-protein (1–40); experiment: direct radioligand binding to fibrils (not displaced by curcumin, lower specificity); fluorescence microscopy

T1 sequence (P05067 672-711): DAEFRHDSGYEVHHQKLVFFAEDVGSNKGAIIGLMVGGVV

| Substance | % bound [1] | % bound [2] |
| --- | --- | --- |
| ^68Ga(CUR)2^+ | > 90 % bound | – |
| ^68Ga(DAC)2^+ | > 90 % bound | – |
| ^68Ga(bDHC)2^+ | – | ~ 50 % bound |
